Assay results from patent US4400199A, “Thiolcarbamate compounds and their use as herbicides” (priority 1981, dated 1983).
Converted amounts (≈) assume the structure as drawn. “And” between values parts separate entries of the source, which are not always exact repeats. Equal values may be shown once. Read-outs that look alike come from different tables or passages of the source.

Key:
[1] = Experiment 3: acute toxicity to fish; assay type: in vivo, Black-carp fry; settings: carp, water; for LC50 at 48 h: read-out: Median lethal concentration TLm (48hrs); for LC50 at 96 h: read-out: Median lethal concentration TLm (96hrs)
Protocol: With respect to the compounds according to the present invention and the comparative compounds (Compound 10, Compound 12 and Compound 13), there were conducted tests on acute toxicity to carps.
In 25-liter water tanks made of glass was charged 20 liters of water. 12 Black-carp fry were released to each of the water tanks and bred while feeding for 7 days. Then, the whole quantity of water in each of the tanks was replaced with fresh water, and feeding to the carps was stopped. After three days, a prescribed amount of 1 weight % solution of a test compound in acetone was added to water in the water tank.
The number of survival fish in each tank was counted after 24 hours, 48 hours and 96 hours, successively.
The TLm (median tolerance limit=lethal concentration 50%) was determined by the Doudorff's method (Sewage & Ind. Wastes 23 (1951) 1380-1397).

[2] = test system: Mizugayatsuri (Cyperus serotinus); assay: Experiment 2: herbicidal effects against Mizugayatsuri (pot test, granules); assay type: in vivo; settings: 25 days
[3] = test system: barnyard grass (Echinochloa crus-galli); assay: Experiment 1: herbicidal effects against barnyard grass (pot test, emulsifiable concentrate); assay type: in vivo
[4] = test system: Hotarui (Scirpus juncoides); assay: Experiment 2: herbicidal effects against Hotarui (pot test, granules); assay type: in vivo; settings: 25 days
broad-leaf weeds = assay: Experiment 2: herbicidal effects against broad-leaf weeds (pot test, granules); assay type: in vivo; settings: 25 days
barnyard grass = assay: Experiment 2: herbicidal effects against barnyard grass (pot test, granules); assay type: in vivo, Echinochloa crus-galli; settings: 2.5 leaf-stage, 25 days
[5] = Experiment 4: subacute toxicity to fish; assay type: in vivo, 2-year-old carps; settings: carp, water; 0.2 ppm; 3 weeks; read-out: Survival rate after 3 weeks
Protocol: (§1) With respect to the compounds according to the present invention and the comparative compounds listed in Table 4, there were conducted tests on subacute toxicity to 2-year-old carps having an average weight of 20 g.
(§2) Ten 2-year-old carps were released in each of 25-liter water tanks equipped with an air-blowing apparatus and acclimatized to the surroundings while feeding for 10 days. Water in each of the water tanks was continuously replaced with fresh water so that the residence time of water in the water tanks is 6 hours. Each test compound was added to a predetermined quantity of supply water to prepare a 0.2 ppm aqueous solution of each compound, and each of the aqueous solutions was continuously added to the water in the tank. After three weeks, the hematocrit values of all the survival carps were determined. The hematocrit value used herein is intended to mean a volume percentage of erythrocyte contained in the blood.

carps = assay: Experiment 4: subacute toxicity to fish; assay type: in vivo, 2-year-old carps; settings: for Average Hematocrit Value of survival fish / subacute toxicity to carps (in words) / survival of carps (in words) / symptoms of anemia in carps (in words): 0.2 ppm, 3 weeks
Protocol: as §1, §2

rice plants [6] = settings: in vivo
paddy field weeds = assay: Experiment 2: herbicidal effects against paddy field weeds, overall; assay type: in vivo; settings: compared with Molinate (Compound 13)
rice plants [7] = assay: Experiment 2: phytotoxicity to rice plants (pot test, granules); settings: for phytotoxicity rice plant: 25 days
rice plants [8] = settings: in vivo; remark: listed apart in the source
[9] = 1.5 leaf-stage of barnyard grass, 150 g/10a., 25 days
[10] = 1.5 leaf-stage of barnyard grass, 300 g/10a., 25 days
[11] = 1.5 leaf-stage of barnyard grass, 600 g/10a., 25 days
[12] = 3 leaf-stage of barnyard grass, 150 g/10a., 25 days
[13] = 3 leaf-stage of barnyard grass, 300 g/10a., 25 days
[14] = 3 leaf-stage of barnyard grass, 600 g/10a., 25 days

Row | SMILES | LC50 at 48 h [1] [µg/mL] | LC50 at 96 h [1] [µg/mL] | Herbicidal activity Mizugayatsuri (Cyperus serotinus) ([2]; 150 g/10a.) | Herbicidal activity Mizugayatsuri (Cyperus serotinus) ([2]; 300 g/10a.) | Herbicidal activity Mizugayatsuri (Cyperus serotinus) ([2]; 600 g/10a.) | herbicidal activity (barnyard grass) [3, 9] | herbicidal activity (barnyard grass) [3, 10] | herbicidal activity (barnyard grass) [3, 11] | herbicidal activity (barnyard grass) [3, 12] | Herbicidal activity Hotarui (Scirpus juncoides) ([4]; 150 g/10a.) | Herbicidal activity Hotarui (Scirpus juncoides) ([4]; 300 g/10a.) | Herbicidal activity Hotarui (Scirpus juncoides) ([4]; 600 g/10a.) | Herbicidal activity broad-leaf weeds (broad-leaf weeds; 150 g/10a.) | Herbicidal activity broad-leaf weeds (broad-leaf weeds; 300 g/10a.) | Herbicidal activity broad-leaf weeds (broad-leaf weeds; 600 g/10a.) | herbicidal activity (barnyard grass) (barnyard grass; 150 g/10a.) | herbicidal activity (barnyard grass) (barnyard grass; 300 g/10a.) | herbicidal activity (barnyard grass) (barnyard grass; 600 g/10a.) | survival at 504 h [5] [%] | Average Hematocrit Value of survival fish (carps) [%] | other results
1 | CC1CCC(C)CN(C(=O)SCCCCl)C1 (stereo not drawn) [Compound 6, S-(3-chloropropyl)-3,6-dimethyl-hexahydro-1H-azepine-1-carbothioate] | 4.4 (≈ 16.7 µM) | 3.7 (≈ 14 µM) | 3 (50 to 69%) | 4 (70 to 89%) | 5 (more than 90%) | 5 (more than 90%) | 5 (more than 90%) | 5 (more than 90%) | 5 (more than 90%) | 4 (70 to 89%) | 5 (more than 90%) | 5 (more than 90%) | 4 (70 to 89%) | 5 (more than 90%) | 5 (more than 90%) | 5 (more than 90%) | 5 (more than 90%) | 5 (more than 90%) | 100 | 34 | herbicidal activity (barnyard grass) [3, 13]: 5 (more than 90%); herbicidal activity (barnyard grass) [3, 14]: 5 (more than 90%)
2 | CC1CCC(C)CN(C(=O)SCCCCCl)C1 (stereo not drawn) [Compound 7, S-(4-chlorobutyl)-3,6-dimethyl-hexahydro-1H-azepine-1-carbothioate] | 2.6 (≈ 9.36 µM) | 2.6 (≈ 9.36 µM) | 3 (50 to 69%) | 4 (70 to 89%) | 5 (more than 90%) | 5 (more than 90%) | 5 (more than 90%) | 5 (more than 90%) | 5 (more than 90%) | 3 (50 to 69%) | 5 (more than 90%) | 5 (more than 90%) | 4 (70 to 89%) | 5 (more than 90%) | 5 (more than 90%) | 5 (more than 90%) | 5 (more than 90%) | 5 (more than 90%) | 100 | 34 | herbicidal activity (barnyard grass) [3, 13]: 5 (more than 90%); herbicidal activity (barnyard grass) [3, 14]: 5 (more than 90%)
3 | CC1CCCCN1C(=O)SCCCCl (centres unmarked) [Compound 12, reference compound] | < 0.5 | – | 4 (70 to 89%) | 4 (70 to 89%) | 5 (more than 90%) | 5 (more than 90%) | 5 (more than 90%) | 5 (more than 90%) | 5 (more than 90%) | 4 (70 to 89%) | 5 (more than 90%) | 5 (more than 90%) | 5 (more than 90%) | 5 (more than 90%) | 5 (more than 90%) | 5 (more than 90%) | 5 (more than 90%) | 5 (more than 90%) | 70 | 19 | LC50 at 24 h ([1]; 24 hrs, read-out: Median lethal concentration TLm (24hrs)): 1 µg/mL (≈ 4.24 µM); herbicidal activity (barnyard grass) [3, 13]: 5 (more than 90%); herbicidal activity (barnyard grass) [3, 14]: 5 (more than 90%); herbicidal activity (in words) ([3]; barnyard grass): sufficient herbicidal activities; harmful effects to rice plants (in words) (rice plants [6]): without harmful effects to rice plants; subacute toxicity to carps (in words) (carps): high subacute toxicity to carps; survival of carps (in words) (carps): extremely low; symptoms of anemia in carps (in words) (carps): remarkable symptons of anemia; herbicidal activity (in words) (paddy field weeds): excellent herbicidal activities
4 | CCSC(=O)N1CCCCCC1 [Compound 13, S-ethyl-hexahydro-1H-azepine-1-carbothioate, reference compound] | 34 (≈ 182 µM) | – | 0 (less than 10%) | 1 (10 to 29%) | 1 (10 to 29%) | – | – | – | – | 0 (less than 10%) | 1 (10 to 29%) | 2 (30 to 49%) | 1 (10 to 29%) | 2 (30 to 49%) | 3 (50 to 69%) | 3 (50 to 69%) | 4 (70 to 89%) | 5 (more than 90%) | 50 | 25 | herbicidal activity (barnyard grass) ([3]; in vivo): 5 (key: 5: more than 90%; 4: 70 to 89%; 3: 50 to 69%; 2: 30 to 49%; 10 to 29%; less than 10%) and 4 (key: 5: more than 90%; 4: 70 to 89%; 3: 50 to 69%; 2: 30 to 49%; 10 to 29%; less than 10%) and 3 (key: 5: more than 90%; 4: 70 to 89%; 3: 50 to 69%; 2: 30 to 49%; 10 to 29%; less than 10%); phytotoxicity rice plant (rice plants [7]; 150 g/10a.): 0 (less than 10%); phytotoxicity rice plant (rice plants [7]; 300 g/10a.): 0 (less than 10%); phytotoxicity rice plant (rice plants [7]; 600 g/10a.): 2 (30 to 49%); subacute toxicity to carps (in words) (carps): high subacute toxicity to carps; survival of carps (in words) (carps): extremely low; symptoms of anemia in carps (in words) (carps): remarkable symptons of anemia; subacute anemia symptoms in fish (in words) (carps; general statement): subacute anemia symptoms in fish
5 | CCN(CC)C(=O)SCCCCl [Compound 10, reference compound] | > 20 | 18 (≈ 85.8 µM) | 4 (70 to 89%) | 4 (70 to 89%) | 5 (more than 90%) | – | – | – | – | 4 (70 to 89%) | 4 (70 to 89%) | 5 (more than 90%) | 5 (more than 90%) | 5 (more than 90%) | 5 (more than 90%) | 5 (more than 90%) | 5 (more than 90%) | 5 (more than 90%) | 80 | 16 | phytotoxicity rice plant (rice plants [8]): 0 (key: 5: more than 90%; 4: 70 to 89%; 3: 50 to 69%; 2: 30 to 49%; 10 to 29%; less than 10%); herbicidal activity (barnyard grass) ([3]; in vivo): 5 (key: 5: more than 90%; 4: 70 to 89%; 3: 50 to 69%; 2: 30 to 49%; 10 to 29%; less than 10%); herbicidal activity (in words) ([3]; in vivo): sufficient herbicidal activities; harmful effects to rice plants (in words) (rice plants [7]): without harmful effects to rice plants; phytotoxicity rice plant (rice plants [7]; 150 g/10a.): 0 (less than 10%); phytotoxicity rice plant (rice plants [7]; 300 g/10a.): 0 (less than 10%); phytotoxicity rice plant (rice plants [7]; 600 g/10a.): 0 (less than 10%); subacute toxicity to carps (in words) (carps): high subacute toxicity to carps; survival of carps (in words) (carps): extremely low; symptoms of anemia in carps (in words) (carps): remarkable symptons of anemia; herbicidal activity (in words) (paddy field weeds): excellent herbicidal activities
